Entries after “also recorded” stand apart in the source; their conditions may differ.

For assay [1], the target named is TGFβ (Homo sapiens, UniProt P01137). Nature of the assay: Biacore binding to hALK1-Fc: TGFβ. The procedure:
(§1) ALK1 is a type 1 receptor for ligands of the TGFβ family. Multiple members of the TGFβ family were tested for binding to a human ALK1-Fc fusion protein, using a Biacore™ system.

The target in assay [2] is GDF8 (Homo sapiens, UniProt O14793). Nature of the assay: Biacore binding to hALK1-Fc: GDF8. The procedure:
as §1

Assay [3] has as its system BMP-9 mediated Smad1/5/8 signaling in HMVEC cells. Nature of the assay: SBE4-luc luciferase reporter of BMP-9 mediated Smad1/5/8 signaling in HMVEC cells. As to conditions: 10 μg/ml, rhBMP-9 50 ng/ml. It is filed as cell-based, human. The procedure:
Using a luciferase reporter construct under the control of four sequential consensus SBE sites (SBE4-luc), which are responsive to Smad1/5/8-mediated signaling, we measured BMP-9 mediated activity in the presence and absence of hALK1-Fc drug or neutralizing ALK1 specific monoclonal antibody in HMVEC cells. HMVEC cells were stimulated with rhBMP-9 (50 ng/ml), which induced Smad1/5/8-mediated transcriptional activation, evidenced here by the increase in SBE4-luc modulated transcriptional upregulation.

Assay [4] relates to angiogenesis in chick chorioallantoic membrane. Nature of the assay: CAM (chick chorioallantoic membrane) angiogenesis assay. It is filed as in vivo. The source says: In preferred embodiments, an ALK1 ECD polypeptide binds to one or more of GDF5, GDF6, GDF7, BMP9 and BMP10. […] Binding may be assessed using purified proteins in solution or in a surface plasmon resonance system, such as a Biacore™ system. […] Bioassays for angiogenesis inhibitory activity include the chick chorioallantoic membrane (CAM) assay, the mouse corneal micropocket assay, or an assay known in the art for measuring the effect of administering isolated or synthesized proteins on implanted tumors. The CAM assay is described by O'Reilly, et al., in “Angiogenic Regulation of Metastatic Growth” Cell, 1994; 79 (2):315-328. Briefly, 3 day old chicken embryos with intact yolks are separated from the egg and placed in a petri dish. After 3 days of incubation, a methylcellulose disc containing the protein to be tested is applied to the CAM of individual embryos. After 48 hours of incubation, the embryos and CAMs are observed to determine whether endothelial growth has been inhibited. The mouse corneal micropocket assay involves implanting a growth factor-containing pellet, along with another pellet containing the suspected endothelial growth inhibitor, in the cornea of a mouse and observing the pattern of capillaries that are elaborated in the cornea. Other assays are described in the Examples.
VEGF and FGF are well-known to stimulate angiogenesis. A CAM (chick chorioallantoic membrane) assay system was used to assess the angiogenic effects of GDF7.
ALK1-Fc fusions were tested for anti-angiogenic activity in the CAM assay.
ALK1-Fc proteins and a commercially available, anti-angiogenic anti-VEGF monoclonal antibody were compared in the CAM assay. The ALK1-Fc proteins had similar potency as compared to anti-VEGF. The anti-VEGF antibody bevacizumab is currently used in the treatment of cancer and macular degeneration in humans.

For assay [5], the system named is ocular angiogenesis. Nature of the assay: Mouse corneal micropocket assay. It is filed as in vivo. To be noted: intraperitoneally; identical weight/weight dosages. From the text:
In preferred embodiments, an ALK1 ECD polypeptide binds to one or more of GDF5, GDF6, GDF7, BMP9 and BMP10. […] Binding may be assessed using purified proteins in solution or in a surface plasmon resonance system, such as a Biacore™ system. […] Bioassays for angiogenesis inhibitory activity include the chick chorioallantoic membrane (CAM) assay, the mouse corneal micropocket assay, or an assay known in the art for measuring the effect of administering isolated or synthesized proteins on implanted tumors. The CAM assay is described by O'Reilly, et al., in “Angiogenic Regulation of Metastatic Growth” Cell, 1994; 79 (2):315-328. Briefly, 3 day old chicken embryos with intact yolks are separated from the egg and placed in a petri dish. After 3 days of incubation, a methylcellulose disc containing the protein to be tested is applied to the CAM of individual embryos. After 48 hours of incubation, the embryos and CAMs are observed to determine whether endothelial growth has been inhibited. The mouse corneal micropocket assay involves implanting a growth factor-containing pellet, […] of capillaries that are elaborated in the cornea. Other assays are described in the Examples.
Similar data were obtained when a Matrigel plug impregnated with VEGF was implanted in a non-ocular location.

Assay [6] has as its system BMP10 signaling (Smad1/5/8 reporter) in T98G cells. Nature of the assay: BMP10 signaling reporter assay in T98G cells transfected with ALK1. It is filed as cell-based, human. To be noted: 65 ng/ml, BMP10 1 ng/ml. The method, then:
Effects of hALK-Fc on BMP10 signaling were determined in a cell-based assay, in which human glioblastoma T98G cells were transfected with three plasmids: 1) an expression construct encoding full-length ALK1; 2) a firefly-luciferase reporter construct (see Example 3) responsive to Smad1/5/8-mediated signaling, and 3) a Renilla-luciferase control construct. Treatment of transfected cells with recombinant human BMP10 (1 ng/ml) strongly stimulated firefly luciferase activity relative to Renilla luciferase activity (FIG. 16). Omission of the ALK1 expression construct reduced BMP10-stimulated activity by approximately two-thirds (data not shown), thus implicating ALK1 as a major mediator of the BMP10 signal. Treatment of fully transfected cells with hALK1-Fc (65 ng/ml) and BMP10 (1 ng/ml) reduced the transcriptional response compared to BMP10 alone by more than 80% (FIG. 16).

Assay [7] concerns A498 cells. Nature of the assay: A498 human RCC tumor xenograft model. The assay is classed as in vivo, mouse. To be noted: for tumor growth, single agent: 10 mg/kg IP 3 times per week, vs Fc. The procedure: A498 cells, a VHL-deficient human RCC cell line (see Iliopoulos et al., Nature Medicine 1995; 1:822-6), was obtained from the American Type Culture Collection, and cultured in Eagle's minimal essential medium. Media was supplemented with 2 mmol/L L-glutamine, 10% FCS, and 1% streptomycin (50 μg/mL), and cells were cultured at 37° C. with 5% CO2. […] cells were harvested from subconfluent cultures by a brief exposure to 0.25% trypsin and 0.02% EDTA. Trypsinization was stopped with medium containing 10% fetal bovine serum, and the cells were washed once in serum-free medium and resuspended in PBS. Only suspensions consisting of single cells with >90% viability were used for the injections.
To establish human RCC xenografts, A498 tumor cells were injected subcutaneously (1×10^7 cells) into the flanks of 6- to 8-week-old female athymic nude/beige mice (Charles River Laboratories) that were of 20 g average body weight. Tumors developed in >80% of the mice and were usually visible within a few days of implantation. Mice were treated with Fc or ALK-Fc when the tumors had grown to a diameter of 12 mm. ALK-Fc (10 mg/kg) was administered 3 times per week intraperitoneally. Tumors were measured daily while mice were on treatment.
A498 cell culture and xenograft establishment was performed as described in Example 14. Mice were treated with vehicle plus Fc, sunitinib plus Fc, vehicle plus ALK-Fc, or subitinib plus ALK-Fc when the tumors had grown to a diameter of 12 mm. Sunitinib (53.6 mg/kg; Pfizer) was administered 6 of 7 days per week by gavage beginning. ALK1-Fc (10 mg/kg) was administered 3 times per week intraperitoneally. Tumors were measured daily while mice were on treatment.

Chain of TGFβ (P01137 279-390): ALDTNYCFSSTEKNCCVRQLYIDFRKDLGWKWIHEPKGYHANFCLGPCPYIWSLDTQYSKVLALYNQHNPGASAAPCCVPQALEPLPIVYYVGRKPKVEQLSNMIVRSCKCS

As for “hALK1-Fc: extracellular domain of human ALK1 (amino acids 22-120) fused to a human IgG1 Fc with a minimal linker (SEQ ID NO:3/14)”, the “binding to hALK1-Fc” value in assay [1] and in assay [2] was “failed to show substantial binding” in each case. The “diminished transcriptional response (SBE4-luc)” value in assay [3] is roughly 60%. In addition, in assay [4], the “anti-angiogenic effect compared with anti-VEGF monoclonal antibody” value is “comparable to the effects of the anti-VEGF antibody”. Moreover, in assay [4], the “anti-angiogenic effect on angiogenesis stimulated by VEGF, FGF and GDF7” value is “inhibits angiogenesis stimulated by VEGF, FGF and GDF7”. In addition, in assay [5], the ocular angiogenesis entry was “significantly inhibited ocular angiogenesis; also recorded: to the same degree as anti-VEGF; also recorded: comparable effects”. In addition, the “reduction of transcriptional response compared to BMP10 alone” value in assay [6] is recorded as “more than 80%”. Further, the figures for the “tumor growth, single agent” value in assay [7] and in assay [7] (listed as ALK-Fc) were “inhibit tumor growth as a single agent” and “dramatically slowed tumor growth”, respectively. In assay [7] (administered in combination with sunitinib), the “effect on tumor growth inhibiting activity of sunitinib” value is “substantially increased the tumor growth inhibiting activity of sunitinib”. The tumor growth entry in assay [7] (combination study, sunitinib 53.6 mg/kg gavage, ALK1-Fc 10 mg/kg IP) is on record as “slowed tumor growth”.
